Data reported in ChEMBL document CHEMBL4257509, “Effect of isouronium/guanidinium substitution on the efficacy of a series of novel anti-cancer agents” (Medchemcomm, 2018).
The source made the active and inactive calls. The rule behind the calls is not given here.

Legend:
HL-60 [1] = experiment: Cytotoxicity against human HL60 cells after 72 hrs by alamar blue assay; format: functional, cell-based; details: HL-60, 72 h
MCF7 [2] = experiment: Cytotoxicity against human MCF7 cells after 72 hrs by alamar blue assay; format: functional, cell-based; details: MCF7, 72 h
HeLa = experiment: Cytotoxicity against human HeLa cells after 72 hrs by alamar blue assay; format: functional, cell-based
Homo sapiens = species on record: Homo sapiens; experiment: Inhibition of ERK phosphorylation in human HL60 cells at 10 uM after 16 hrs by Western blot analysis; format: cell-based
MCF7 [3] = experiment: Inhibition of ERK phosphorylation in human MCF7 cells at 10 uM after 16 hrs by Western blot analysis; format: cell-based
HL-60 [4] = experiment: Effect on total ERK expression in human HL60 cells after 16 hrs by Western blot analysis; format: cell-based; details: hl-60, 16 h
MCF7 [5] = experiment: Effect on total ERK expression in human MCF7 cells after 16 hrs by Western blot analysis; format: cell-based; details: mcf7, 16 h

CNC(=O)c1cc(Oc2ccc(NC(=O)Nc3ccc(Cl)c(C(F)(F)F)c3)cc2)ccn1 [SORAFENIB]
IC50 (HL-60 [1]): 2.59 µM
IC50 (MCF7 [2]): 3.07 µM
IC50 (HeLa): 4.59 µM
inhibition (Homo sapiens): Active
inhibition (MCF7 [3]): Active
Activity (HL-60 [4]): Non-Toxic
Activity (MCF7 [5]): Non-Toxic

N=C(N)Nc1ccc(Oc2cccc(NC(=O)c3ccc(Cl)c(C(F)(F)F)c3)c2)cc1
IC50 (HL-60 [1]): 28.2 µM
IC50 (MCF7 [2]): 20.8 µM
IC50 (HeLa): 11.3 µM

Cl.Cl.N=C(Nc1cccc(Oc2ccc(OC(=N)N)cc2)c1)Nc1ccc(Cl)c(C(F)(F)F)c1
IC50 (HL-60 [1]): 5.49 µM
IC50 (MCF7 [2]): 4.68 µM
IC50 (HeLa): 3.35 µM
inhibition (Homo sapiens): Active
inhibition (MCF7 [3]): Active
Activity (HL-60 [4]): Non-Toxic
Activity (MCF7 [5]): Non-Toxic

Cl.Cl.N=C(N)Nc1ccc(Oc2cccc(NC(=N)Nc3ccc(Cl)c(C(F)(F)F)c3)c2)cc1
IC50 (MCF7 [2]): 9.84 µM
IC50 (HeLa): 9.48 µM
inhibition (Homo sapiens): inactive
inhibition (MCF7 [3]): Active
Activity (HL-60 [4]): Non-Toxic
Activity (MCF7 [5]): Non-Toxic

N=C(N)Oc1ccc(Oc2cccc(NC(=O)c3ccc(Cl)c(C(F)(F)F)c3)c2)cc1
IC50 (HL-60 [1]): 35.6 µM
IC50 (MCF7 [2]): 28.7 µM
IC50 (HeLa): 83.6 µM
